Test results: ChEMBL document CHEMBL1144965, “A series of 2(Z)-2-benzylidene-6,7-dihydroxybenzofuran-3[2H]-ones as inhibitors of chorismate synthase” (Bioorg Med Chem Lett, 2003); call rule not given here

B1: 3-phosphoshikimate 1-carboxyvinyltransferase (Escherichia coli K-12), P0A6D3 (protein)
chain: MESLTLQPIARVDGTINLPGSKSVSNRALLLAALAHGKTVLTNLLDSDDVRHMLNALTALGVSYTLSADRTRCEIIGNGGPLHAEGALELFLGNAGTAMRPLAAALCLGSNDIVLTGEPRMKERPIGHLVDALRLGGAKITYLEQENYPPLRLQGGFTGGNVDVDGSVSSQFLTALLMTAPLAPEDTVIRIKGDLVSKPYIDITLNLMKTFGVEIENQHYQQFVVKGGQSYQSPGTYLVEGDASSASYFLAAAAIKGGTVKVTGIGRNSMQGDIRFADVLEKMGATICWGDDYISCTRGELNAIDMDMNHIPDAAMTIATAALFAKGTTTLRNIYNWRVKETDRLFAMATELRKVGAEVEEGHDYIRITPPEKLNFAEIATYNDHRMAMCFSLVALSDTPVTILDPKCTAKTFPDYFEQLARISQAA

Target: T1, Chorismate synthase (Streptococcus pneumoniae serotype 4 (strain ATCC BAA-334 / TIGR4), UniProt P0A2Y6)
T1 sequence (P0A2Y6 whole entry): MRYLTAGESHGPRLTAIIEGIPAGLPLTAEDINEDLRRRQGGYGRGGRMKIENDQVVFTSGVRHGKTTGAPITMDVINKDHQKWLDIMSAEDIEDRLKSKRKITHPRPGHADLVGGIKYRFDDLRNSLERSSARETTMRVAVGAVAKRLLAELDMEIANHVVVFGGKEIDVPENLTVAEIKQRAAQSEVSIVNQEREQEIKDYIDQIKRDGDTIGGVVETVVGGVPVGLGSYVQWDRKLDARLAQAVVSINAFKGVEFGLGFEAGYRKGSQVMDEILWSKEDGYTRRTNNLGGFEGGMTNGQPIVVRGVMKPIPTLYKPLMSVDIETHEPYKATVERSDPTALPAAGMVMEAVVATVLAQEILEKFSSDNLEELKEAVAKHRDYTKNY
Assay: Inhibitory concentration against Streptococcus pneumoniae chorismate synthase

Row | IC50 | Molecule
1 | 10700 nM | O=C(O)c1ccccc1/C=C1/Oc2c(ccc(O)c2O)C1=O
2 | 1800 nM | O=C(O)COc1ccccc1/C=C1/Oc2c(ccc(O)c2O)C1=O
3 | 2000 nM | O=C1/C(=C\c2ccccc2[N+](=O)[O-])Oc2c1ccc(O)c2O
4 | 1100 nM | O=C(O)CCCOc1ccc(/C=C2/Oc3c(ccc(O)c3O)C2=O)c(O)c1
5 | > 60000 nM | COc1ccccc1/C=C1/Oc2c(ccc(O)c2O)C1=O
6 | 1600 nM | O=C1/C(=C\c2ccc(OCCCCCCO)cc2O)Oc2c1ccc(O)c2O
7 | 5800 nM | CCOc1ccc(/C=C2/Oc3c(ccc(O)c3O)C2=O)cc1
8 | 2500 nM | O=C1/C(=C\c2ccc(OCCCO)cc2O)Oc2c1ccc(O)c2O
9 | 10300 nM | CCOC(=O)COc1ccc(/C=C2/Oc3c(ccc(O)c3O)C2=O)c(O)c1
10 | 5200 nM | O=C1/C(=C\c2ccccc2Cl)Oc2c1ccc(O)c2O
11 | 1700 nM | COc1cccc(/C=C2/Oc3c(ccc(O)c3O)C2=O)c1O
12 | 3500 nM | O=C1/C(=C\c2ccccc2)Oc2c1ccc(O)c2O
13 | 4800 nM | O=C1/C(=C\c2ccc([N+](=O)[O-])cc2)Oc2c1ccc(O)c2O
14 | 450 nM | CCCCOc1ccc(/C=C2/Oc3c(ccc(O)c3O)C2=O)c(O)c1
15 | 320 nM | CCCCCCOc1ccc(/C=C2/Oc3c(ccc(O)c3O)C2=O)c(O)c1
16 | 860 nM | O=C1/C(=C\c2ccc(OCCCCO)cc2O)Oc2c1ccc(O)c2O
17 | 7000 nM | O=C1/C(=C\c2ccc(C(F)(F)F)cc2)Oc2c1ccc(O)c2O
18 | 220 nM | CCCCCOc1ccc(/C=C2/Oc3c(ccc(O)c3O)C2=O)c(O)c1
19 | 3400 nM | CCN(CCO)c1ccc(/C=C2/Oc3c(ccc(O)c3O)C2=O)c(C)c1
20 | 17300 nM | O=C1/C(=C\c2ccccc2C(F)(F)F)Oc2c1ccc(O)c2O

Row | IC50 | Molecule
21 | 1500 nM | CCCCOc1ccc(/C=C2/Oc3c(ccc(O)c3O)C2=O)cc1
22 | 14300 nM | COc1ccc(/C=C2/Oc3c(ccc(O)c3O)C2=O)cc1
23 | 1000 nM | O=C1/C(=C\c2ccc(OCc3ccccc3)cc2O)Oc2c1ccc(O)c2O
24 | 2600 nM | O=C(O)COc1ccc(/C=C2/Oc3c(ccc(O)c3O)C2=O)c(O)c1
25 | > 60000 nM | O=C1/C(=C\c2ccc(F)cc2)Oc2c1ccc(O)c2O
26 | 15000 nM | O=C1/C(=C\c2ccc(O)cc2)Oc2c1ccc(O)c2O
27 | 510 nM | CCCOc1ccc(/C=C2/Oc3c(ccc(O)c3O)C2=O)c(O)c1
28 | 580 nM | CC(C)COc1ccc(/C=C2/Oc3c(ccc(O)c3O)C2=O)c(O)c1
29 | 800 nM | O=C1/C(=C\c2ccccc2O)Oc2c1ccc(O)c2O
30 | 5100 nM | O=C1/C(=C\c2ccc(-n3ccnc3)cc2)Oc2c1ccc(O)c2O
31 | 4000 nM | Cc1ccccc1/C=C1/Oc2c(ccc(O)c2O)C1=O
32 | 1100 nM | N#CCCCOc1ccc(/C=C2/Oc3c(ccc(O)c3O)C2=O)c(O)c1
33 | 700 nM | COc1ccc(/C=C2/Oc3c(ccc(O)c3O)C2=O)c(O)c1
34 | 24000 nM | O=C(O)c1ccc(/C=C2/Oc3c(ccc(O)c3O)C2=O)cc1
35 | 650 nM | CCOC(=O)CCCOc1ccc(/C=C2/Oc3c(ccc(O)c3O)C2=O)c(O)c1
36 | 25900 nM | CN(C)c1ccc(/C=C2/Oc3c(ccc(O)c3O)C2=O)cc1
37 | 5500 nM | O=C1/C(=C\c2ccc(N3CCCC3)cc2)Oc2c1ccc(O)c2O
38 | 1000 nM | CC(C)Oc1ccc(/C=C2/Oc3c(ccc(O)c3O)C2=O)c(O)c1
39 | 5000 nM | CCN(CC)c1ccc(/C=C2/Oc3c(ccc(O)c3O)C2=O)c(O)c1
40 | > 50000 nM | O=C1/C(=C\c2ccc(N3CCOCC3)cc2)Oc2c1ccc(O)c2O

Target: T1, Chorismate synthase
Assay: Inhibitory concentration against Streptococcus pneumoniae chorismate synthase; Not active

Row | IC50 | Molecule
41 | Not Active | Cc1ccc(/C=C2/Oc3c(ccc(O)c3O)C2=O)cc1
42 | Not Active | N#Cc1ccc(/C=C2/Oc3c(ccc(O)c3O)C2=O)cc1

Test system: not listed separately
Assay: (§1) Non-competitive inhibitory activity with respect to cofactor FMN

Row | Ki | Molecule
43 | 1400 nM | COc1ccc(/C=C2/Oc3c(ccc(O)c3O)C2=O)c(O)c1

Target: not listed separately
Assay: as §1

Row | Ki | Molecule
44 | 1700 nM | CCN(CC)c1ccc(/C=C2/Oc3c(ccc(O)c3O)C2=O)cc1

Substrate: CCN(CC)c1ccc(/C=C2/Oc3c(ccc(O)c3O)C2=O)cc1
Assay: not given

Row | Molecule | Km
45 | B1 | 30 µM

Target: Chorismate synthase (Streptococcus pneumoniae)
Assay: Competitive inhibitory activity with respect to EPSP (5-enolpyruvyl-shikimate- 3-phosphate) at chorismate synthase

Row | Ki | Molecule
46 | 100 nM | COc1ccc(/C=C2/Oc3c(ccc(O)c3O)C2=O)c(O)c1
